Where two headings read alike, the source gives them in different places.
Key:
[1] = Pharmacokinetic analysis in ICR mice; type: in vivo, mouse; details: for bioavailability: 10 mg/kg oral vs 2.0 mg/kg i.v., read-out: F% (oral bioavailability)
Protocol: Samples were placed in tubes containing heparin sodium and stored on ice until centrifuged. Blood samples were centrifuged at 6800g for 6 min at 2–8°C within 1 h following sample collection and stored at −80°C. Proteins from plasma sample aliquots (20 μl) were precipitated by the addition of MeOH (400 μl) containing an internal standard (tolbutamide,100 ng/ml), vortexed for 1 min, and centrifuged at 18 000g for 7 min. The supernatant (200 μl) was transferred to 96 well plates for analysis.
Analysis of samples was conducted as follows. […] The PK parameters including Area Under the Curve (AUC[0–∞]) elimination half‐life (t 1/2), maximal plasma concentration (C max), and oral bioavailability (F%) were analyzed by noncompartmental methods.

[2] = test system: MDA‐MB‐231 or SUM159 cells; experiment: Caspase‐3/7 activity assay and PARP cleavage; type: cell-based, human; details: for caspase‐3/7 activity: 24 h, 10 μM ONC201, 150 nM TR‐57, 100 nM TR‐107, 100 nM staurosporine; for PARP cleavage: data not shown
Protocol: […]. The samples were collected in lysis buffer (50 mM HEPES [pH: 7.4], 5 mM CHAPS, and 5 mM DTT), and caspase activity was measured by monitoring fluorescence (ex/em: 360/460 nm) using a SpectraMax i3x (Molecular Devices).

SUM159 cells = experiment: Cell viability (total cell count, Hoechst stain) in SUM159 cells; type: cell-based; details: Homo sapiens, WT cells, 72 h, mean N = 3
Protocol: Human TNBC cell line SUM159 was a generous gift from Dr. Gary Johnson (the University of North Carolina at Chapel Hill). MDA‐MB‐231 (WT and CLPP‐KO) cells were provided by Dr. Stanley Lipkowitz (National Cancer Institute). MDA‐MB‐231 cells were cultured in RPMI‐1640 media (Gibco, 11875‐093) supplemented with 10% fetal bovine serum (FBS; VWR‐Seradigm, 97068‐085), and 1% antibiotic–antimycotic (anti/anti; ThermoFisher Scientific, 15240062). SUM159 cells were cultured in Dulbecco's modified Eagle's medium: Nutrient Mixture F‐12 (DMEM/F12; Gibco, 11330‐032) supplemented with 5% FBS, 5 μg/ml insulin (Gibco, 12585014), 1 μg/ml hydrocortisone, and 1% anti/anti. Cells were maintained at 5% CO2 and 37°C and periodically tested for mycoplasma.
Total cell counting assays were performed by seeding MDA‐MB‐231 cells (WT and ClpP‐KO; 4000 cells/well) or SUM159 (WT and ClpP‐KO; 1000 cells/well) in a 96‐well plate (Perkin Elmer, 6005050) and allowed to adhere overnight. The growth medium was then aspirated and replaced with 100 μl of growth medium supplemented with the drug at concentrations indicated in the figure or figure legends. Cells treated with vehicle control (0.1% DMSO, Sigma‐Aldrich D2650) were used as a negative control in all experiments, and cells were incubated with drug‐containing media for 24, 48, or 72 h as indicated in figure legends. Media was then aspirated and replaced with 100 μl Dulbecco's phosphate‐buffered saline (DPBS Gibco, 14190‐144) containing 1 μg/ml Hoechst stain (ThermoFischer Scientific, H3570) and allowed to incubate at 37°C for 30 min. The total cell number was then quantified using the Celigo Imaging Cytometer (Nexcelom).

[3] = target: purified recombinant human ClpP (Homo sapiens, UniProt Q16740); experiment: In vitro ClpP activity assay (casein‐FITC degradation); type: biochemical; details: relative to DMSO, read-out: EC50 (nM) ClpP activation
Protocol: Measurement of in vitro activity of purified recombinant human ClpP was performed with a slight modification to the method previously described.[46] Briefly, ClpP activity was measured through the degradation of casein‐FITC (Sigma‐Aldrich, C0528) in the presence of indicated compounds. […] Enzyme and compounds were mixed and incubated in assay buffer for 30 min before adding casein‐FITC substrate. […] Linear slope of fluorescence signal was used to measure ClpP activity and normalized to DMSO control, expressed as RFU/h.

MDA‐MB‐231 cells = experiment: Cell viability (total cell count, Hoechst stain) in MDA‐MB‐231 cells; type: cell-based, human; details: Homo sapiens, MDA-MB-231, 72 h
[4] = cited from earlier work
[5] = test system: MDA‐MB‐231 and SUM159 cells; experiment: Immunoblotting for mitochondrial proteins; type: cell-based, human; details: 100 nM TR‐107, 150 nM TR‐57, or 10 μM ONC201
Protocol: Cell lysates were clarified and immunoblotted as described earlier.[45] Membranes were incubated with primary antibodies (Appendix S1) diluted 1:1000 in 1% fish gelatin (Sigma‐Aldrich, G7041)/TBST overnight at 4°C, removed, washed 3 × 5 min in TBST, and placed in their respective 2° antibodies (1:10 000 dilution in 5% milk/TBST) for 1 h. […] Acquired images were processed/quantified using Image Lab software (BioRad) or Image Studio Lite (LI‐COR).

C3(1)‐Tag cells = experiment: Cell viability assay of C3Tag cells; type: cell-based, murine; details: Mus musculus; 72 h, Hoechst stain, N = 2
[6] = male, mouse, plasma, iv, ICR mice, 2.0 mg/kg i.v.
[7] = male, mouse, plasma, iv, ICR mice, 2.0 mg/kg i.v., read-out: C max
[8] = male, mouse, plasma, iv, ICR mice, 2.0 mg/kg i.v., read-out: C max (mg/ml)
[9] = male, mouse, plasma, iv, ICR mice, 2.0 mg/kg i.v., read-out: T 1/2 (converted)
[10] = male, mouse, plasma, ICR mice, 10 mg/kg oral
[11] = male, mouse, plasma, ICR mice, 10 mg/kg oral, read-out: C max
[12] = male, mouse, plasma, ICR mice, 10 mg/kg oral, read-out: C max (mg/ml)
[13] = male, mouse, plasma, ICR mice, 10 mg/kg oral, read-out: T 1/2 (converted)
[14] = WT cells, Hoechst stain, mean N = 3, read-out: IC50 (nM) MDA-MB-231

Sequence of purified recombinant human ClpP (Q16740 57-277): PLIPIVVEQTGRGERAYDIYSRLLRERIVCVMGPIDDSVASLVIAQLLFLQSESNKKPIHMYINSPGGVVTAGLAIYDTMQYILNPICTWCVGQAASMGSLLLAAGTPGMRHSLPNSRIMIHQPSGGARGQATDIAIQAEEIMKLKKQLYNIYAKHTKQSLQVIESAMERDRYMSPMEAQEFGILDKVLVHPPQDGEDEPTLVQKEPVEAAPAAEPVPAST

| SMILES | AUC(0-inf) [1, 6] | Cmax [1, 7] | Cmax [1, 8] | half-life [1, 9] | bioavailability ([1]; male, mouse, plasma, ICR mice) | Cmax [1, 11] | Cmax [1, 12] | half-life [1, 13] | IC50 (SUM159 cells) | EC50 [3] | IC50 (MDA‐MB‐231 cells; [14]) | also measured |
| --- | --- | --- | --- | --- | --- | --- | --- | --- | --- | --- | --- | --- |
| N#Cc1cccc(CN2CCC3=C(C2)C(=O)N(Cc2ccc(Cl)cc2)C2=NCCN23)c1 [TR‐65] | 351 ng·h/mL | 1500 nM | 636 ng/mL | 0.73 h | 33% | 670 nM | 294 ng/mL | 0.95 h | – | – | – | AUC(0-inf) [1, 10]: 584 ng·h/mL |
| C#Cc1cccc(CN2CCC3=C(C2)C(=O)N(Cc2ccc(Cl)cc2)C2=NCCN23)c1 [TR‐27] | 155 ng·h/mL | 350 nM | 154 ng/mL | 1.06 h | 33% | 290 nM | 127 ng/mL | 1.16 h | – | – | – | – |
| CN[C@@H]1C[C@H]2O[C@@](C)([C@@H]1OC)n1c3ccccc3c3c4c(c5c6ccccc6n2c5c31)C(=O)NC4 [Staurosporine, staurosporine, reference compound] | – | – | – | – | – | – | – | – | – | – | – | caspase‐3/7 activity [2]: strong increase |
| N#Cc1cccc(CN2CCC3=C(C2)C(=O)N(Cc2ccc(C(F)(F)F)cc2)C2=NCCCN23)c1 [TR‐98] | – | – | – | – | – | – | – | – | 24 nM | 310 nM | 21 nM | – |
| O=C1C2=C(CCN(Cc3ccccc3)C2)N2CCN=C2N1Cc1ccc(C(F)(F)F)cc1 [ONC212/TR‐31, reference compound] | 638 ng·h/mL | 2200 nM | 950 ng/mL | 1.68 h | 14% | 640 nM | 282 ng/mL | 1.49 h | 27 nM | 310 nM | 80 nM | AUC(0-inf) [1, 10]: 449 ng·h/mL; reported t 1/2 ([4]; oral dose of 125 mg/kg): 4.3 h |
| Cn1c2c(c(=O)n(Cc3ccc(Cl)cc3)c1=O)CN(Cc1cccc(C#N)c1)CC2 [TR‐57] | 886 ng·h/mL | 3000 nM | 1240 ng/mL | 1.52 h | 61% | 4100 nM | 1710 ng/mL | 1.4 h | – | – | – | AUC ([1]; male, mouse, plasma, po, ICR mice, 10 mg/kg orally, read-out: exposure (AUC)): 2710 ng·h/mL; AUC(0-inf) [1, 10]: 2710 ng·h/mL; TUFM and TFAM protein levels by 24 h [5]: complete or near‐complete loss; time at which TUFM and TFAM protein levels began to decline [5]: ~ 6 h; caspase‐3/7 activity [2]: no increase; PARP cleavage [2]: no increase |
| Cc1nc2c(c(=O)n1Cc1ccc(Cl)cc1)CN(Cc1cccc(C#N)c1)CC2 [TR‐97] | – | – | – | – | – | – | – | – | 53 nM | 340 nM | 104 nM | – |
| Cc1ccccc1CN1C(=O)C2=C(CCN(Cc3ccccc3)C2)N2CCN=C12 [ONC201, reference compound] | 50.7 ng·h/mL | 310 nM | – | 0.26 h | 1.2% | 23 nM | – | 0.31 h | – | – | – | increase in exposure (AUC) vs 10 mg/kg oral ([1]; 25 mg/kg oral): 46 X; AUC (0–∞) ([1]; ICR mice, 10 mg/kg oral): 3.13 ng·h/mL; Cmax ([1]; male, mouse, in vivo, iv, ICR mice, 2.0 mg/kg i.v., read-out: C max (mg/ml)): 122 ng/mL; Cmax ([1]; male, mouse, in vivo, ICR mice, 10 mg/kg oral, read-out: C max (mg/ml)): 8.99 ng/mL; Cmax ([1]; male, mouse, in vivo, ICR mice, 25 mg/kg oral, blood collection 0.083–4 h, read-out: C max (mg/ml)): 195 ng/mL; AUC(0-inf) ([1]; male, mouse, plasma, ICR mice, 25 mg/kg oral, blood collection 0.083–4 h): 145 ng·h/mL; Cmax ([1]; male, mouse, plasma, ICR mice, 25 mg/kg oral, blood collection 0.083–4 h, read-out: C max): 500 nM; half-life ([1]; male, mouse, plasma, ICR mice, i.v. 2 mg/kg and oral 10 mg/kg arms, read-out: t 1/2 (range over study arms)): 0.26 to 0.31 h; IC50 (MDA‐MB‐231 cells; media containing galactose, read-out: IC50 (nM) Galactose): 350 nM; IC50 (MDA‐MB‐231 cells; media containing glucose, read-out: IC50 [glucose]): 1700 nM; TUFM and TFAM protein levels by 24 h [5]: complete or near‐complete loss; time at which TUFM and TFAM protein levels began to decline [5]: ~ 6 h; caspase‐3/7 activity [2]: no increase; PARP cleavage [2]: no increase; reported t 1/2 ([4]; in mice, higher doses): 6.4 h |
| N#Cc1cccc(CN2CCC3=C(C2)C(=O)N(Cc2ccc(Cl)cc2)C2=NCC(F)(F)CN23)c1 [TR‐106] | – | – | – | – | – | – | – | – | 120 nM | 1100 nM | 430 nM | – |
| O=C1C2=C(CCN(Cc3ccccc3)C2)N2CCN=C2N1Cc1ccc(F)cc1F [ONC206, reference compound] | – | – | – | – | – | – | – | – | 180 nM | 830 nM | 260 nM | – |
| CC(=O)O[C@H]1C(=O)[C@@]2(C)[C@H]([C@H](OC(=O)c3ccccc3)[C@]3(O)C[C@H](OC(=O)[C@H](O)[C@@H](NC(=O)c4ccccc4)c4ccccc4)C(C)=C1C3(C)C)[C@]1(OC(C)=O)CO[C@@H]1C[C@@H]2O [Paclitaxel, paclitaxel, reference compound] | – | – | – | – | – | – | – | – | – | – | – | IC50 (C3(1)‐Tag cells): 14 nM |
| N#Cc1cccc(CC2CCC3=C(C2)C(=O)N(Cc2ccc(Cl)cc2)C2=NCCN23)c1 (stereo not shown) [TR‐122] | – | – | – | – | – | – | – | – | 3500 nM | 1100 nM | 2600 nM | – |
| N#Cc1cccc(CC2CCC3=C(C2)C(=O)N(Cc2ccc(C(F)(F)F)cc2)C2=NCCN23)c1 (stereo not shown) [TR‐109] | – | – | – | – | – | – | – | – | 4600 nM | 670 nM | 2200 nM | – |
